system: not listed separately; assay: TZMbI assay for cell safety (cell viability and growth, CytoTox Glo); details: human, TZMbI cells, 10 μM, Experiment 1A; read-out: % decrease in viability compared to 0.1% DMSO vehicle based on viable cell luminescence
Method: Assays were performed below in accordance with the procedures set forth in The Journal of Immunology, 2006, 176, pp. 6900-905; AIDS Research and Human Retroviruses, 2004, 20:11, pp. 1157-1665.^32,33 TZMbI assays for cell safety were performed to identify potential anti-viral compounds. TZMbI assays for cell safety were performed to identify potential anti-viral compounds per the methods.

Compound	cytotoxicity at 10 μM
COc1ccc(Br)cc1-c1oc2cccc(OC)c2c(=O)c1O [Compound 9f, 2-(5-Bromo-2-methoxyphenyl)-3-hydroxy-5-methoxy-4H-chromen-4-one]	-0.2%
COc1ccc(I)cc1-c1oc2ccccc2c(=O)c1O [Compound 9g, 3-Hydroxy-2-(5-iodo-2-methoxyphenyl)-4H-chromen-4-one]	15.3%
COc1ccc(C)cc1-c1oc2ccccc2c(=O)c1O [Compound 9j, 3-hydroxy-2-(2-methoxy-5-methylphenyl)-4H-chromen-4-one]	4.8%

system: mock transfected 293T HEK cells; assay: PathDetect Elk1 luminescence in mock transfected (empty pcDNA3 vector) 293T HEK cells, off-target effect; type: cell-based, human; details: 10 μM vs 1% DMSO control, Equation 1
In short: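 HEK 293T cells were transiently transfected with PathDetect Elk1/luciferase and empty pcDNA3, then exposed to 10 μM compound in medium with 1% FBS and 1% DMSO for 20-24 h at 37 °C. BrightGlo luminescence was compared with the 1% DMSO control: % effect = 100%×(mock/DMSO) − 100%.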

Compound	Effect(%) on mock cells with each drug at 10 μM
COc1ccc(C)cc1-c1oc2ccccc2c(=O)c1O [Compound 9j, 3-hydroxy-2-(2-methoxy-5-methylphenyl)-4H-chromen-4-one]	0%

same assay, conditions: Homo sapiens, 10 μM vs 1% DMSO control, Equation 1; read-out: Effect(%) on mock cells with each drug at 10 μM

Compound	activation at 10 µM
COc1ccc(Br)cc1-c1oc2cccc(OC)c2c(=O)c1O [Compound 9f, 2-(5-Bromo-2-methoxyphenyl)-3-hydroxy-5-methoxy-4H-chromen-4-one]	-1%
COc1ccc(I)cc1-c1oc2ccccc2c(=O)c1O [Compound 9g, 3-Hydroxy-2-(5-iodo-2-methoxyphenyl)-4H-chromen-4-one]	-23%
COc1ccc(C)cc1-c1oc2ccccc2c(=O)c1O [Compound 9j, 3-hydroxy-2-(2-methoxy-5-methylphenyl)-4H-chromen-4-one]	0%

biological target: T1, US28 receptor (Human cytomegalovirus, UniProt P69332); assay: not given; details: same Elk1 reporter assay, from ref 13; cited from earlier work
T1 construct: expressed in transfected cells; host or cells: HEK 293T cells, transiently transfected
T1 sequence (P69332 whole entry): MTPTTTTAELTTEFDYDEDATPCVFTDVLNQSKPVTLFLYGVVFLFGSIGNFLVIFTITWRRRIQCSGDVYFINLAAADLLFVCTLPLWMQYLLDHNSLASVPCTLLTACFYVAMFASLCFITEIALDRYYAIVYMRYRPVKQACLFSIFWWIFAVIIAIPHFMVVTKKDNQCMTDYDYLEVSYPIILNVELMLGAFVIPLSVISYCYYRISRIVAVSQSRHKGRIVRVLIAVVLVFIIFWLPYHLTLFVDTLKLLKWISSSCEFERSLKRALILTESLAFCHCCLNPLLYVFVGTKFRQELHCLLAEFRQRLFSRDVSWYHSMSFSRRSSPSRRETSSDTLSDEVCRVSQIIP

Compound	EC50	efficacy
N#CC(CCCN1CCC(O)(c2ccc(Cl)cc2)CC1)(c1ccccc1)c1ccccc1 [Compound 5a, VUF2274]	4.5 µM	~22%

biological target: T1, US28 receptor; assay: PathDetect trans Elk1 luciferase reporter gene assay in US28-transfected 293T HEK cells; type: cell-based, Human Cytomegalovirus (HCMV); details: 293T HEK cells transiently expressing US28, Elk1 reporter; NE = no effect when tested at 10 μM of compound
In short: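 HEK293T cells transiently transfected with Elk1, Luc and US28 vector (empty pcDNA3 for mock) were dosed with compounds in DMEM/1% FBS with 1% DMSO for 20-24 h at 37° C. Bright-Glo luminescence decrease was read; EC50 is halfway between maximal response and no-compound control, by non-linear regression.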

Compound	EC50
COc1ccc(Br)cc1-c1oc2cccc(OC)c2c(=O)c1O [Compound 9f, 2-(5-Bromo-2-methoxyphenyl)-3-hydroxy-5-methoxy-4H-chromen-4-one]	> 10 µM
COc1ccc(I)cc1-c1oc2ccccc2c(=O)c1O [Compound 9g, 3-Hydroxy-2-(5-iodo-2-methoxyphenyl)-4H-chromen-4-one]	> 10 µM

same assay, conditions: EC50 (μM), 293T HEK cells transiently expressing US28, Elk1 reporter; NE = no effect when tested at 10 μM of compound

Compound	EC50
COc1ccc(C)cc1-c1oc2ccccc2c(=O)c1O [Compound 9j, 3-hydroxy-2-(2-methoxy-5-methylphenyl)-4H-chromen-4-one]	1.78 µM

same assay, conditions: Elk1 reporter, US28-transfected HEK cells

Compound	type of activity on the US28 receptor (agonist / inverse agonist / none), in words
COc1ccc(C)cc1-c1oc2ccccc2c(=O)c1O [Compound 9j, 3-hydroxy-2-(2-methoxy-5-methylphenyl)-4H-chromen-4-one]	inhibited US28 receptor constitutive activity

same assay, conditions: read-out: Efficacy(%), maximum intrinsic activity from dose-response curve; negative = inverse agonism

Compound	Emax
COc1ccc(C)cc1-c1oc2ccccc2c(=O)c1O [Compound 9j, 3-hydroxy-2-(2-methoxy-5-methylphenyl)-4H-chromen-4-one]	-38%

system: HIV-1 BaL; assay: Anti-HIV assay (luciferase, HIV-1 BaL infection); type: cell-based; details: 10 μM, Experiment 1B, 2 ng/mL p24 HIV-1 BaL
In short: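 Cells infected with HIV-1 BaL at 2 ng/mL p24 (MOI approx 0.02) in compound presence. Infection read out by luciferase.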

Compound	RLU (relative luciferase units)
COc1ccc(Br)cc1-c1oc2cccc(OC)c2c(=O)c1O [Compound 9f, 2-(5-Bromo-2-methoxyphenyl)-3-hydroxy-5-methoxy-4H-chromen-4-one]	528.5 RLU
COc1ccc(I)cc1-c1oc2ccccc2c(=O)c1O [Compound 9g, 3-Hydroxy-2-(5-iodo-2-methoxyphenyl)-4H-chromen-4-one]	358.6 RLU
COc1ccc(C)cc1-c1oc2ccccc2c(=O)c1O [Compound 9j, 3-hydroxy-2-(2-methoxy-5-methylphenyl)-4H-chromen-4-one]	814.0 RLU

same assay, conditions: Human immunodeficiency virus 1, BAL, 10 μM, Experiment 1B, 2 ng/mL p24 HIV-1 BaL

Compound	inhibition at 10 µM
COc1ccc(Br)cc1-c1oc2cccc(OC)c2c(=O)c1O [Compound 9f, 2-(5-Bromo-2-methoxyphenyl)-3-hydroxy-5-methoxy-4H-chromen-4-one]	43.6%
COc1ccc(I)cc1-c1oc2ccccc2c(=O)c1O [Compound 9g, 3-Hydroxy-2-(5-iodo-2-methoxyphenyl)-4H-chromen-4-one]	61.7%
COc1ccc(C)cc1-c1oc2ccccc2c(=O)c1O [Compound 9j, 3-hydroxy-2-(2-methoxy-5-methylphenyl)-4H-chromen-4-one]	13%

system: CHO cells; assay: CHO cell toxicity, MTS assay, 48 h; type: cell-based, Chinese hamster; details: Cricetulus griseus, CHO, 37° C., MTS reagent, read-out: CHO 48 h IC50 value
In short: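 CHO cells plated at 10,000 cells/mL, incubated overnight, then exposed to drug (final DMSO <1%) for 48 h at 37 °C, 5% CO2, in triplicate. MTS added for a further 4 h; absorbance read at 490 nm. IC50 taken from relative A490 versus drug concentration.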

Compound	IC50
COc1ccc(Br)cc1-c1oc2cccc(OC)c2c(=O)c1O [Compound 9f, 2-(5-Bromo-2-methoxyphenyl)-3-hydroxy-5-methoxy-4H-chromen-4-one]	17.3 ± 1.9 µM
COc1ccc(I)cc1-c1oc2ccccc2c(=O)c1O [Compound 9g, 3-Hydroxy-2-(5-iodo-2-methoxyphenyl)-4H-chromen-4-one]	17.9 ± 1.6 µM
COc1ccc(C)cc1-c1oc2ccccc2c(=O)c1O [Compound 9j, 3-hydroxy-2-(2-methoxy-5-methylphenyl)-4H-chromen-4-one]	54.6 ± 4.2 µM

system: not given; assay: not given; details: not given

Compound	melting point
COc1ccc(Br)cc1-c1oc2cccc(OC)c2c(=O)c1O [Compound 9f, 2-(5-Bromo-2-methoxyphenyl)-3-hydroxy-5-methoxy-4H-chromen-4-one]	207 to 213 °C
COc1ccc(I)cc1-c1oc2ccccc2c(=O)c1O [Compound 9g, 3-Hydroxy-2-(5-iodo-2-methoxyphenyl)-4H-chromen-4-one]	153 to 159 °C
COc1ccc(C)cc1-c1oc2ccccc2c(=O)c1O [Compound 9j, 3-hydroxy-2-(2-methoxy-5-methylphenyl)-4H-chromen-4-one]	158 to 164 °C
